HELM strings list units from the 5' end as sugar, base in round brackets, then linkage (d deoxyribose, r ribose, m 2'-O-methyl, p phosphodiester). Strings are as the collection lists them; they lack the last nucleoside at the 3' end of the tested compound. [moe] = 2'-O-(2-methoxyethyl) (MOE); [sp] = phosphorothioate linkage; [m5C] = 5-methylcytosine
These substances were tested against APP (assay: mouse, dose not given). Settings: ASO.

First: RNA1{[moe](G)[sp].[moe](T)p.[moe](T)p.[moe]([m5C])p.[moe](A)[sp].d([m5C])[sp].d(A)[sp].d(G)[sp].d(T)[sp].d(T)[sp].d(T)[sp].d(A)[sp].d([m5C])[sp].d([m5C])[sp].d([m5C])[sp].[moe]([m5C])p.[moe](A)p.[moe](A)[sp].[moe](G)}$$$$ (last 3' nucleoside missing)
Second: RNA1{[moe](G)[sp].[moe](A)p.[moe](A)p.[moe](G)p.[moe]([m5C])[sp].d(A)[sp].d(T)[sp].d(A)[sp].d(T)[sp].d(T)[sp].d([m5C])[sp].d([m5C])[sp].d(T)[sp].d([m5C])[sp].d(T)[sp].[moe](A)p.[moe](T)p.[moe]([m5C])[sp].[moe]([m5C])}$$$$ (last 3' nucleoside missing)
The 3 h FOB score of the first is higher: 3.25 score 0-7 for the first, 0.67 score 0-7 for the second.

Going from “RNA1{[moe]([m5C])[sp].[moe](T)p.[moe](T)p.[moe]([m5C])p.[moe](T)[sp].d(T)[sp].d(A)[sp].d(T)[sp].d([m5C])[sp].d(A)[sp].d(G)[sp].d([m5C])[sp].d(T)[sp].d(T)[sp].d(T)[sp].[moe](A)p.[moe](G)p.[moe](G)[sp].[moe]([m5C])}$$$$ (last 3' nucleoside missing)” to “RNA1{[moe]([m5C])[sp].[moe]([m5C])p.[moe](T)p.[moe](T)p.[moe](T)[sp].d([m5C])[sp].d(A)[sp].d(A)[sp].d(T)[sp].d(A)[sp].d(T)[sp].d(T)[sp].d(G)[sp].d(T)[sp].d(T)[sp].[moe]([m5C])p.[moe](T)p.[moe](T)[sp].[moe]([m5C])}$$$$ (last 3' nucleoside missing)”, the 3 h FOB score rises from 1 score 0-7 to 3.33 score 0-7.

Going from “RNA1{[moe]([m5C])[sp].[moe](G)p.[moe](T)p.[moe](G)p.[moe](T)[sp].d(G)[sp].d(T)[sp].d(A)[sp].d(T)[sp].d([m5C])[sp].d([m5C])[sp].d(T)[sp].d([m5C])[sp].d(T)[sp].d(T)[sp].[moe](A)p.[moe](A)p.[moe](T)[sp].[moe](T)}$$$$ (last 3' nucleoside missing)” to “RNA1{[moe](G)[sp].[moe]([m5C])p.[moe](A)p.[moe](G)p.[moe](A)[sp].d(A)[sp].d(T)[sp].d([m5C])[sp].d([m5C])[sp].d(A)[sp].d([m5C])[sp].d(A)[sp].d(T)[sp].d(T)[sp].d(G)[sp].[moe](T)p.[moe]([m5C])p.[moe](A)[sp].[moe]([m5C])}$$$$ (last 3' nucleoside missing)”, the 3 h FOB score rises from 1 score 0-7 to 1.5 score 0-7.

Compared with “RNA1{[moe](T)[sp].[moe]([m5C])p.[moe](A)p.[moe](T)p.[moe](A)[sp].d(T)[sp].d(T)[sp].d(G)[sp].d(T)[sp].d([m5C])[sp].d(T)[sp].d(T)[sp].d([m5C])[sp].d(A)[sp].d(A)[sp].[moe](T)p.[moe](G)p.[moe](T)[sp].[moe](G)}$$$$ (last 3' nucleoside missing)”, “RNA1{[moe](G)[sp].[moe](G)p.[moe]([m5C])p.[moe](A)p.[moe](T)[sp].d([m5C])[sp].d(A)[sp].d([m5C])[sp].d(T)[sp].d(T)[sp].d(A)[sp].d([m5C])[sp].d(A)[sp].d(A)[sp].d(A)[sp].[moe]([m5C])p.[moe](T)p.[moe]([m5C])p.[moe](A)}$$$$ (last 3' nucleoside missing)” is lower in 3 h FOB score: 2 score 0-7 for the first, 0 score 0-7 for the second.

First: RNA1{[moe]([m5C])[sp].[moe]([m5C])p.[moe](A)p.[moe]([m5C])p.[moe](G)[sp].d(A)[sp].d([m5C])[sp].d([m5C])[sp].d(T)[sp].d(T)[sp].d(A)[sp].d([m5C])[sp].d(A)[sp].d([m5C])[sp].d(T)[sp].[moe](A)p.[moe](G)p.[moe](G)[sp].[moe](T)}$$$$ (last 3' nucleoside missing)
Second: RNA1{[moe](G)[sp].[moe](T)p.[moe](T)p.[moe](T)p.[moe](A)p.[moe]([m5C])[sp].d([m5C])[sp].d(T)[sp].d(T)[sp].d(T)[sp].d(A)[sp].d(A)[sp].d([m5C])[sp].d(A)[sp].d(T)[sp].d(T)[sp].[moe]([m5C])p.[moe]([m5C])[sp].[moe](T)}$$$$ (last 3' nucleoside missing)
The 3 h FOB score of the first is lower: 0 score 0-7 for the first, 2.75 score 0-7 for the second.

First: RNA1{[moe](T)[sp].[moe](G)p.[moe](G)p.[moe](G)p.[moe]([m5C])[sp].d(A)[sp].d(T)[sp].d([m5C])[sp].d(A)[sp].d(T)[sp].d(T)[sp].d(T)[sp].d(T)[sp].d(T)[sp].d(G)[sp].[moe]([m5C])p.[moe](T)p.[moe]([m5C])[sp].[moe]([m5C])}$$$$ (last 3' nucleoside missing)
Second: RNA1{[moe](G)[sp].[moe]([m5C])p.[moe](A)p.[moe](T)p.[moe]([m5C])[sp].d(A)[sp].d([m5C])[sp].d(T)[sp].d(T)[sp].d(A)[sp].d([m5C])[sp].d(A)[sp].d(A)[sp].d(A)[sp].d([m5C])[sp].[moe](T)p.[moe]([m5C])p.[moe](A)[sp].[moe]([m5C])}$$$$ (last 3' nucleoside missing)
The 3 h FOB score of the first is lower: 0 score 0-7 for the first, 0.5 score 0-7 for the second.

Compared with “RNA1{[moe](G)[sp].[moe]([m5C])p.[moe](A)p.[moe]([m5C])p.[moe](A)[sp].d(A)[sp].d(T)[sp].d(T)[sp].d(A)[sp].d(T)[sp].d(T)[sp].d(G)[sp].d(T)[sp].d(T)[sp].d(T)[sp].[moe]([m5C])p.[moe]([m5C])p.[moe](T)[sp].[moe]([m5C])}$$$$ (last 3' nucleoside missing)”, “RNA1{[moe](G)[sp].[moe](T)p.[moe](G)p.[moe](A)p.[moe]([m5C])[sp].d(T)[sp].d(T)[sp].d(A)[sp].d(T)[sp].d(A)[sp].d([m5C])[sp].d(T)[sp].d([m5C])[sp].d(A)[sp].d(A)[sp].[moe](T)p.[moe](G)p.[moe](A)[sp].[moe]([m5C])}$$$$ (last 3' nucleoside missing)” is lower in 3 h FOB score: 1 score 0-7 for the first, 0 score 0-7 for the second.

Compared with “RNA1{[moe](A)[sp].[moe]([m5C])p.[moe](T)p.[moe](T)p.[moe]([m5C])[sp].d(T)[sp].d(A)[sp].d([m5C])[sp].d(T)[sp].d(A)[sp].d([m5C])[sp].d(T)[sp].d(T)[sp].d(T)[sp].d(G)[sp].[moe](T)p.[moe]([m5C])p.[moe](T)[sp].[moe](T)}$$$$ (last 3' nucleoside missing)”, “RNA1{[moe](A)[sp].[moe](G)p.[moe]([m5C])p.[moe](A)p.[moe](T)[sp].d([m5C])[sp].d(T)[sp].d(T)[sp].d(T)[sp].d(T)[sp].d(A)[sp].d([m5C])[sp].d(T)[sp].d(A)[sp].d(T)[sp].[moe]([m5C])p.[moe](T)p.[moe](G)[sp].[moe]([m5C])}$$$$ (last 3' nucleoside missing)” is lower in 3 h FOB score: 1.5 score 0-7 for the first, 0.67 score 0-7 for the second.

“RNA1{[moe]([m5C])[sp].[moe](A)p.[moe](T)p.[moe](G)p.[moe](G)[sp].d([m5C])[sp].d(T)[sp].d(T)[sp].d([m5C])[sp].d([m5C])[sp].d(A)[sp].d([m5C])[sp].d(T)[sp].d([m5C])[sp].d(T)[sp].[moe](G)p.[moe](G)p.[moe]([m5C])[sp].[moe]([m5C])}$$$$ (last 3' nucleoside missing)” and “RNA1{[moe]([m5C])[sp].[moe]([m5C])p.[moe](T)p.[moe]([m5C])p.[moe](T)[sp].d(G)[sp].d([m5C])[sp].d(T)[sp].d(A)[sp].d([m5C])[sp].d(T)[sp].d(T)[sp].d([m5C])[sp].d(T)[sp].d(A)[sp].[moe]([m5C])p.[moe](T)p.[moe](A)[sp].[moe]([m5C])}$$$$ (last 3' nucleoside missing)” are the same in 3 h FOB score: 1 score 0-7 for the first, 1 score 0-7 for the second.

“RNA1{[moe](T)[sp].[moe]([m5C])p.[moe](T)p.[moe]([m5C])p.[moe](T)[sp].d([m5C])[sp].d(A)[sp].d(T)[sp].d(A)[sp].d(G)[sp].d(T)[sp].d([m5C])[sp].d(T)[sp].d(T)[sp].d(A)[sp].[moe](A)p.[moe](T)p.[moe](T)[sp].[moe]([m5C])}$$$$ (last 3' nucleoside missing)” and “RNA1{[moe](T)[sp].[moe](G)p.[moe](G)p.[moe](T)p.[moe]([m5C])[sp].d(A)[sp].d(T)[sp].d([m5C])[sp].d(A)[sp].d(A)[sp].d([m5C])[sp].d(T)[sp].d(T)[sp].d(T)[sp].d(T)[sp].[moe](T)p.[moe](A)p.[moe](G)[sp].[moe](T)}$$$$ (last 3' nucleoside missing)” are the same in 3 h FOB score: 0 score 0-7 for the first, 0 score 0-7 for the second.

“RNA1{[moe](G)[sp].[moe]([m5C])p.[moe](T)p.[moe]([m5C])p.[moe](A)[sp].d(T)[sp].d(T)[sp].d(T)[sp].d(T)[sp].d(T)[sp].d(T)[sp].d(T)[sp].d(T)[sp].d(A)[sp].d([m5C])[sp].[moe](A)p.[moe](T)p.[moe](G)[sp].[moe](A)}$$$$ (last 3' nucleoside missing)” and “RNA1{[moe]([m5C])[sp].[moe]([m5C])[sp].[moe]([m5C])p.[moe](A)p.[moe]([m5C])[sp].d(T)[sp].d(T)[sp].d([m5C])[sp].d([m5C])[sp].d([m5C])[sp].d(A)[sp].d(T)[sp].d(T)[sp].d([m5C])[sp].d(T)[sp].[moe](G)p.[moe](G)p.[moe](A)[sp].[moe]([m5C])}$$$$ (last 3' nucleoside missing)” are the same in 3 h FOB score: 0 score 0-7 for the first, 0 score 0-7 for the second.

First: RNA1{[moe](A)[sp].[moe](T)p.[moe](T)p.[moe]([m5C])p.[moe](T)[sp].d(G)[sp].d(G)[sp].d(A)[sp].d([m5C])[sp].d(A)[sp].d(T)[sp].d(T)[sp].d([m5C])[sp].d(A)[sp].d(T)[sp].[moe](G)p.[moe](T)p.[moe](G)[sp].[moe]([m5C])}$$$$ (last 3' nucleoside missing)
Second: RNA1{[moe](G)[sp].[moe](T)p.[moe](A)p.[moe]([m5C])p.[moe](T)[sp].d(G)[sp].d(T)[sp].d(T)[sp].d(T)[sp].d([m5C])[sp].d(T)[sp].d(T)[sp].d([m5C])[sp].d(T)[sp].d(T)[sp].[moe]([m5C])p.[moe](A)p.[moe](G)[sp].[moe]([m5C])}$$$$ (last 3' nucleoside missing)
The 3 h FOB score of the first is lower: 1 score 0-7 for the first, 2 score 0-7 for the second.

For “RNA1{[moe](G)[sp].[moe](T)p.[moe](T)p.[moe](T)p.[moe](A)[sp].d([m5C])[sp].d([m5C])[sp].d(T)[sp].d(T)[sp].d(T)[sp].d(A)[sp].d(A)[sp].d([m5C])[sp].d(A)[sp].d(T)[sp].[moe](T)p.[moe]([m5C])p.[moe]([m5C])[sp].[moe](T)}$$$$ (last 3' nucleoside missing)”, the 3 h FOB score was 0 score 0-7.
